Laboratory results published in ChEMBL document CHEMBL1201862, “PubChem BioAssay data set” (2004).
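Dose response: 5 concentrations. Exposure: 48 h. Format: 96-well plates. Endpoint: linear interpolation; highest concentration if not reached. Abbreviation: GI50, concentration required for 50% inhibition of growth.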 Activity calls are given as the source filed them. No stated cut-off is given here; in the data, active = GI50 up to about 1.1 µM and inactive = higher.

Columns and labels:
Test in all cases: DTP human tumour cell line panel, 48 h
[1] = tested on: 786-0
[2] = tested on: A498
[3] = tested on: A549
[4] = tested on: ACHN
[5] = tested on: CAKI-1
[6] = tested on: CCRF-CEM
[7] = tested on: COLO 205
[8] = tested on: DLD-1
[9] = tested on: DMS-114
[10] = tested on: EKVX
[11] = tested on: HCC 2998
[12] = tested on: HCT-116
[13] = tested on: HCT-15
[14] = tested on: HL-60
[15] = tested on: HOP-18
[16] = tested on: HOP-62
[17] = tested on: HOP-92
[18] = tested on: HT-29
[19] = tested on: IGROV-1
[20] = tested on: K562
[21] = tested on: KM-20L2
[22] = tested on: KM12
[23] = tested on: LOX IMVI
[24] = tested on: LXFL 529
[25] = tested on: M14
[26] = tested on: M19-MEL
[27] = tested on: MOLT-4
[28] = tested on: Malme-3M
[29] = tested on: NCI-H226
[30] = tested on: NCI-H23
[31] = tested on: NCI-H460
[32] = tested on: NCI-H522
[33] = tested on: OVCAR-3
[34] = tested on: OVCAR-4
[35] = tested on: OVCAR-5
[36] = tested on: OVCAR-8
[37] = tested on: RXF 393
[38] = tested on: SF-268
[39] = tested on: SF-295
[40] = tested on: SF-539
[41] = tested on: SK-MEL-28
[42] = tested on: SK-MEL-2
[43] = tested on: SK-MEL-5
[44] = tested on: SK-OV-3
[45] = tested on: SN12C
[46] = tested on: SNB-19
[47] = tested on: SNB-75
[48] = tested on: SNB-78
[49] = tested on: SR
[50] = tested on: SW-620
[51] = tested on: TK-10
[52] = tested on: U-251
[53] = tested on: UACC-257
[54] = tested on: UACC-62
[55] = tested on: UO-31
[56] = tested on: XF498
[57] = tested on: BT-549
[58] = tested on: DMS-273
[59] = tested on: DU-145
[60] = tested on: Hs-578T
[61] = tested on: MCF7
[62] = tested on: MDA-MB-231
[63] = tested on: MDA-MB-435
[64] = tested on: MDA-N
[65] = tested on: NCI/ADR-RES
[66] = tested on: RPMI-8226
[67] = tested on: T47D

SMILES: COc1cc(C2c3cc4c(cc3[C@@H](OCCN)[C@H]3COC(=O)C23)OCO4)cc(OC)c1O (some centres not stated)
- GI50 [1]: 82 nM (active)
- GI50 [2]: 212 nM (active)
- GI50 [3]: 51.8 nM (active)
- GI50 [4]: 181 nM (active)
- GI50 [5]: 135 nM (active)
- GI50 [6]: 31.6 nM (active)
- GI50 [7]: 1700 nM (inactive)
- GI50 [8]: 1320 nM (inactive)
- GI50 [9]: 29.5 nM (active)
- GI50 [10]: 413 nM (active)
- GI50 [11]: 671 nM (active)
- GI50 [12]: 995 nM (active)
- GI50 [13]: 2870 nM
- GI50 [14]: < 10 nM (active)
- GI50 [15]: 1770 nM (inactive)
- GI50 [16]: 69 nM (active)
- GI50 [17]: 82 nM (active)
- GI50 [18]: 700 nM (active)
- GI50 [19]: 1150 nM (inactive)
- GI50 [20]: 181 nM (active)
- GI50 [21]: 543 nM (active)
- GI50 [22]: 491 nM (active)
- GI50 [23]: 43.4 nM (active)
- GI50 [24]: 776 nM (active)
- GI50 [25]: 383 nM (active)
- GI50 [26]: 196 nM (active)
- GI50 [27]: < 10 nM (active)
- GI50 [28]: 136 nM (active)
- GI50 [29]: 87.3 nM (active)
- GI50 [30]: 136 nM (active)
- GI50 [31]: < 10 nM (active)
- GI50 [32]: 155 nM (active)
- GI50 [33]: 1270 nM (inactive)
- GI50 [34]: 2050 nM (inactive)
- GI50 [35]: 644 nM (active)
- GI50 [36]: 550 nM (active)
- GI50 [37]: 440 nM (active)
- GI50 [38]: 159 nM (active)
- GI50 [39]: 108 nM (active)
- GI50 [40]: 105 nM (active)
- GI50 [41]: 518 nM (active)
- GI50 [42]: 322 nM (active)
- GI50 [43]: 200 nM (active)
- GI50 [44]: 129 nM (active)
- GI50 [45]: 107 nM (active)
- GI50 [46]: 104 nM (active)
- GI50 [47]: 238 nM (active)
- GI50 [48]: 3520 nM (inactive)
- GI50 [49]: < 19.1 nM (active)
- GI50 [50]: 179 nM (active)
- GI50 [51]: 2140 nM (inactive)
- GI50 [52]: 40.5 nM (active)
- GI50 [53]: 1240 nM (inactive)
- GI50 [54]: 84.3 nM (active)
- GI50 [55]: 4090 nM (inactive)
- GI50 [56]: < 34.7 nM (active)

SMILES: C=C1C(C)C2C(Cc3ccccc3)NC(=O)C23C(OC(C)=O)/C=C/C(C)(O)CC(C)C/C=C/C3C1O (configuration not stated)
- GI50 [1]: 632 nM (active)
- GI50 [2]: 117 nM (active)
- GI50 [3]: 603 nM (active)
- GI50 [4]: 492 nM (active)
- GI50 [57]: 2670 nM (inactive)
- GI50 [5]: 28.8 nM (active)
- GI50 [6]: 1030 nM (active)
- GI50 [7]: 104 nM (active)
- GI50 [8]: 79.6 nM (active)
- GI50 [9]: 8570 nM (inactive)
- GI50 [58]: 6100 nM (inactive)
- GI50 [59]: > 100000 nM (inactive)
- GI50 [10]: 1720 nM (inactive)
- GI50 [11]: 16100 nM (inactive)
- GI50 [12]: 4530 nM (inactive)
- GI50 [13]: 2700 nM
- GI50 [14]: 5020 nM (inactive)
- GI50 [15]: 32.4 nM (active)
- GI50 [16]: 43.5 nM (active)
- GI50 [17]: 154 nM (active)
- GI50 [18]: 138 nM (active)
- GI50 [60]: 12.9 nM (active)
- GI50 [19]: 1320 nM (inactive)
- GI50 [20]: 23300 nM (inactive)
- GI50 [21]: 112 nM (active)
- GI50 [22]: 97300 nM (inactive)
- GI50 [23]: 59.3 nM (active)
- GI50 [25]: 99100 nM (inactive)
- GI50 [26]: 49100 nM (inactive)
- GI50 [61]: 6560 nM (inactive)
- GI50 [62]: 222 nM (active)
- GI50 [63]: 32900 nM (inactive)
- GI50 [64]: > 100000 nM (inactive)
- GI50 [27]: 5150 nM (inactive)
- GI50 [28]: 28400 nM (inactive)
- GI50 [29]: 728 nM (active)
- GI50 [30]: 13800 nM (inactive)
- GI50 [31]: 290 nM (active)
- GI50 [32]: 2260 nM (inactive)
- GI50 [65]: 57000 nM (inactive)
- GI50 [33]: 2190 nM (inactive)
- GI50 [34]: 904 nM (active)
- GI50 [35]: 70600 nM (inactive)
- GI50 [36]: 54600 nM (inactive)
- GI50 [66]: 9420 nM (inactive)
- GI50 [37]: 39.4 nM (active)
- GI50 [38]: 519 nM (active)
- GI50 [39]: 210 nM (active)
- GI50 [40]: 83.6 nM (active)
- GI50 [41]: 3940 nM (inactive)
- GI50 [42]: 8970 nM (inactive)
- GI50 [43]: 3050 nM (inactive)
- GI50 [44]: 242 nM (active)
- GI50 [45]: 44300 nM (inactive)
- GI50 [46]: 86.3 nM (active)
- GI50 [47]: 14 nM (active)
- GI50 [48]: 45.4 nM (active)
- GI50 [49]: 27500 nM (inactive)
- GI50 [50]: 90600 nM (inactive)
- GI50 [67]: > 100000 nM (inactive)
- GI50 [51]: 60100 nM (inactive)
- GI50 [52]: 67.9 nM (active)
- GI50 [53]: 17100 nM (inactive)
- GI50 [54]: 18200 nM (inactive)
- GI50 [55]: 61.8 nM (active)
- GI50 [56]: 973 nM (active)
